Laboratory results published in patent US7947818B2, “Heteromolecular metal-humic (chelate) complexes” (priority 2007, dated 2011).

Tests used:
[1] = system: cucumber plants (sensitive variety, Anico); experiment: Pot study: foliar Fe content of cucumber plants in basic, calcareous soil; type: in vivo; settings: Fe dose 4 ppm; after 30 days of cultivation; soil pH=8.04, % CO3=23%
Source text: Study of the effect of applying a heteromolecular humate-iron citrate complex in cucumber plants (sensitive variety, Anico) cultivated in a basic (pH=8.04), calcareous (% CO3=23%) soil. In this study, performed in pots, the effect of the synthesis chelate of reference in correcting iron chlorosis (Fe-EDDHA orto-orto isomer) was compared to the effect of the heteromolecular humate-Fe citrate complex prepared according to Example 1; in relation to these compounds' capacity to increase iron absorption in cucumber (v anico) plants sensitive to iron chlorosis. The results obtained after 30 days of cultivation are shown in the following figure, where the Fe-EDDHA chelate orto-orto isomer is called (o,o) and the heteromolecular complex is called (H-Cit). The Fe doses applied were: 4 ppm (o, o) and 4 and 8 ppm (H-Cit).

[2] = system: nectarine trees; experiment: Field study: iron chlorosis and crop of nectarine trees in basic, calcareous soil; type: in vivo; settings: dose d1 (5 g of Fe per tree)
Protocol: In this study, the effect of the heteromolecular humate-Fe citrate complex on nectarine trees cultivated in a basic, calcareous soil was analysed. This effect was compared to the effect of an Fe EDDHA chelate of reference. This test was performed in a field with a high chlorotic power, wherein a clear response to the standard Fe chelate (Fe EDDHA) is not observed.

Molecule	increase in foliar Fe content [1]	Commercial production increase with respect to control [2]	Crop 21 days after treatment [2]	Green colour (1-10) 62 days post-treatment ([2]; leaves' green colour)	Green colour (1-10) 85 days post-treatment ([2]; leaves' green colour)
O=C([O-])C(NCCNC(C(=O)[O-])c1ccccc1[O-])c1ccccc1[O-].[Fe+3] (single isomer, unassigned) [(o,o), Fe-EDDHA orto-orto isomer]	approximately 50%	–	–	–	–
Fe EDDHA [FeEDDHA]	–	+57.9	5.8 kg/tree	5.3	5.9
